In brackets after ≈: the same amount, converted by molar mass. Several values for one entry are separate records, joined by “and”; a condition that tells them apart may be missing. Equal entries are not always repeated. Where two headings read alike, the source gives them in different places.
Experiments:
ΔANR B. anthracis [1] = assay: microbe, parasite or virus in culture; assay type: cell-based, Bacillus anthracis
[2] = tested on: Sterne strain B. anthracis; assay: microbe, parasite or virus in culture; assay type: cell-based, Bacillus anthracis; conditions: for MIC / MBC: Bacillus anthracis
[3] = tested on: Staphylococcus aureus (ATCC strain 29213); assay: microbe, parasite or virus in culture; assay type: cell-based; conditions: ATCC29213|MSSA
[4] = tested on: methicillin–resistant Staphylococcus aureus (ATCC strain 43300); assay: microbe, parasite or virus in culture; assay type: cell-based
[5] = tested on: Enterococcus fecalis (ATCC strain 29212); assay: microbe, parasite or virus in culture; assay type: cell-based; conditions: for MIC / MBC: Enterococcus, ATCC29212
[6] = tested on: vancomycin–resistant Enterococcus (VRE) (ATCC strain 51299); assay: microbe, parasite or virus in culture; assay type: cell-based; conditions: for MIC / MBC: Enterococcus, ATCC51299|VRE
[7] = tested on: Listeria monocytogenes (10403S); assay: microbe, parasite or virus in culture; assay type: cell-based; conditions: for MIC / MBC: Listeria monocytogenes
[8] = tested on: Pseudomonas aeruginosa (ATCC strain 27853); assay: microbe, parasite or virus in culture; assay type: cell-based; conditions: ATCC27853
[9] = tested on: Klebsiella pneumoniae (ATCC strain 700603); assay: microbe, parasite or virus in culture; assay type: cell-based; conditions: for MIC / MBC: Klebsiella pneumoniae, ATCC700603
[10] = tested on: Escherchia coli (ATCC strain 25922); assay: microbe, parasite or virus in culture; assay type: cell-based; conditions: for MIC / MBC: Escherichia coli, ATCC25922
[11] = target: Enoyl reducase (ENR) from Bacillus anthracis (BaENR) (Bacillus anthracis, UniProt A0A6L8PBX8); assay: biochemical; conditions: for inhibition at 1 µM: read-out: % inhibition at 1μM
MHS = assay: cells; assay type: cell-based; conditions: read-out: EC50 against MHS
HeLa cells [12] = assay: cells; conditions: Homo sapiens, read-out: EC50 against HeLa cells
HeLa cells [13] = conditions: human
ΔANR B. anthracis [14] = conditions: cited from earlier work
ENR in S. aurues = conditions: cited from earlier work
PfENR = conditions: cited from earlier work
ENR in E. coli = conditions: cited from earlier work
[15] = Staphylococcus aureus, ATCC43300|MRSA

Enoyl reducase (ENR) from Bacillus anthracis (BaENR), sequence (A0A6L8PBX8 1-256): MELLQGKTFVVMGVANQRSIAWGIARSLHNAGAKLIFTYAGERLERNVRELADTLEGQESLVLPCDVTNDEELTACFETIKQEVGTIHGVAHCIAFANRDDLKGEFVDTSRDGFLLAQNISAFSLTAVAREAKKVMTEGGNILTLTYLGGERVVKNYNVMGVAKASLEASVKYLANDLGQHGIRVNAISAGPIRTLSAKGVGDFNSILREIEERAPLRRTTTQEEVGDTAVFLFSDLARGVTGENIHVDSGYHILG

O=C(O)c1cn(C2CC2)c2cc(N3CCNCC3)c(F)cc2c1=O [Cipro, reference compound]
MIC (ΔANR B. anthracis [1]; Bacillus anthracis): 0.1 µg/mL (≈ 0.302 µM)
MIC [2]: 0.1 µg/mL (≈ 0.302 µM)
MIC [3]: 0.4 µg/mL (≈ 1.21 µM)
MIC [4, 15]: 0.5 ± 0.2 µg/mL (≈ 1.51 µM)
MIC [5]: 0.7 ± 0.1 µg/mL (≈ 2.11 µM)
MIC [6]: 0.6 ± 0.2 µg/mL (≈ 1.81 µM)
MIC [7]: 0.9 ± 0.3 µg/mL (≈ 2.72 µM)
MIC [8]: 0.3 ± 0.1 µg/mL (≈ 0.905 µM)
MIC [9]: 0.5 ± 0.1 µg/mL (≈ 1.51 µM)
MIC [10]: 0.1 µg/mL (≈ 0.302 µM)

O=[N+]([O-])c1ccc(Oc2ccc(Cl)cc2O)c(Cl)c1 [Compound 6, 5-Chloro-2-(2-chloro-4-nitrophenoxy)phenol]
IC50 ([11]; IC50): 290 nM and 300 nM
MBC (ΔANR B. anthracis [1]; Bacillus anthracis): 3.1 ± 1.1 µg/mL (≈ 10.3 µM)
MBC [2]: 3.9 ± 0.8 µg/mL (≈ 13 µM)
MIC [2]: 1.9 ± 0.3 µg/mL (≈ 6.33 µM)
MBC [3]: 2.9 ± 1.2 µg/mL (≈ 9.66 µM)
MIC [3]: 0.1 ± 0.1 µg/mL (≈ 0.333 µM)
MIC [4]: 0.3 ± 0.3 µg/mL (≈ 1 µM)
MBC [4, 15]: 0.4 ± 0.1 µg/mL (≈ 1.33 µM)
MIC [4, 15]: 0.3 µg/mL (≈ 1 µM)
MBC [5]: 31.3 ± 6.3 µg/mL (≈ 104 µM)
MIC [5]: 4.4 ± 0.8 µg/mL (≈ 14.7 µM)
MBC [6]: 37.5 ± 12.5 µg/mL (≈ 125 µM)
MIC [6]: 5.7 ± 0.6 µg/mL (≈ 19 µM)
MBC [7]: 14.1 ± 3.9 µg/mL (≈ 47 µM)
MIC [7]: 2.8 ± 0.3 µg/mL (≈ 9.33 µM)
MIC [8]: > 25 µg/mL
MBC [9]: 12.5 µg/mL (≈ 41.7 µM)
MIC [9]: 1.8 ± 0.4 µg/mL (≈ 6 µM)
MBC [10]: 12.5 µg/mL (≈ 41.7 µM)
MIC [10]: 0.3 ± 0.1 µg/mL (≈ 1 µM)
EC50 (MHS): 9.9 µg/mL (≈ 33 µM)
EC50 (HeLa cells [12]): 29.3 µg/mL (≈ 97.6 µM)

CCCc1ccc(Oc2ccc([N+](=O)[O-])cc2Cl)c(O)c1 [Compound 11, 2-(2-Chloro-4-nitrophenoxy)-5-propylphenol]
IC50 ([11]; IC50): 500 nM
MBC/MIC (ΔANR B. anthracis [1]): 1.8
MIC (ΔANR B. anthracis [1]): 2.2 ± 0.0 µg/mL (≈ 7.15 µM)
MBC (ΔANR B. anthracis [1]; Bacillus anthracis): 3.9 ± 0.8 µg/mL (≈ 12.7 µM)
MIC (ΔANR B. anthracis [1]; Bacillus anthracis): 1.9 to 3.1 µg/mL (≈ 6.17 to 10.1 µM)
MBC/MIC [2]: 2.1
MBC [2]: 3.9 ± 0.8 µg/mL (≈ 12.7 µM)
MIC [2]: 1.9 µg/mL (≈ 6.17 µM)
MBC [3]: 2.9 ± 1.2 µg/mL (≈ 9.42 µM)
MIC [3]: 0.1 ± 0.1 µg/mL (≈ 0.325 µM)
MBC/MIC [4]: 1.9
MIC [4]: 0.3 ± 0.3 µg/mL (≈ 0.975 µM)
MBC [4, 15]: 0.5 ± 0.2 µg/mL (≈ 1.62 µM)
MIC [4, 15]: 0.3 µg/mL (≈ 0.975 µM)
MBC/MIC [5]: 2.9
MBC [5]: 12.5 µg/mL (≈ 40.6 µM)
MIC [5]: 4.4 ± 0.5 µg/mL (≈ 14.3 µM)
MBC/MIC [6]: 2.7
MBC [6]: 15.6 ± 3.1 µg/mL (≈ 50.7 µM)
MIC [6]: 5.7 ± 0.3 µg/mL (≈ 18.5 µM)
MBC/MIC [7]: 5.0
MBC [7]: 14.1 ± 3.9 µg/mL (≈ 45.8 µM)
MIC [7]: 2.8 ± 0.9 µg/mL (≈ 9.1 µM)
MIC [8]: > 25 µg/mL
MBC/MIC [9]: 4.7
MBC [9]: 8.3 ± 2.1 µg/mL (≈ 27 µM)
MIC [9]: 1.8 ± 0.9 µg/mL (≈ 5.85 µM)
MBC/MIC [10]: 4.5
MBC [10]: 1.2 ± 0.4 µg/mL (≈ 3.9 µM)
MIC [10]: 0.3 ± 0.2 µg/mL (≈ 0.975 µM)
EC50 (MHS): 22.6 µg/mL (≈ 73.4 µM)
EC50/MIC ratio (HeLa cells [13]): 15–20
EC50 (HeLa cells [12]): 41.4 µg/mL (≈ 135 µM)

CCCc1ccc(Oc2ccc(S(C)(=O)=O)cc2)c(O)c1 [Compound 44, 2-(4-Methanesulfonylphenoxy)-5-propylphenol]
IC50 ([11]; IC50): 2200 ± 300 nM
MIC (ΔANR B. anthracis [1]; Bacillus anthracis): 61.3 µg/mL (≈ 200 µM)

CCCc1ccc(Oc2cccc(N(C)C)c2)c(O)c1 [Compound 45, 2-(3-Dimethylaminophenoxy)-5-propylphenol]
inhibition at 1 µM [11]: 12.6%
MIC (ΔANR B. anthracis [1]; Bacillus anthracis): 13.6 µg/mL (≈ 50.1 µM)

CCCc1ccc(Oc2cccc(C(F)(F)F)c2)c(O)c1 [Compound 46, 5-Propyl-2-(3-trifluoromethylphenoxy)phenol]
IC50 [11]: 1240 nM
MIC (ΔANR B. anthracis [1]; Bacillus anthracis): 7.4 µg/mL (≈ 25 µM)

CCCc1ccc(Oc2cccc(C=CC(=O)OC)c2)c(O)c1 [Compound 48, 3-[3-(2-Hydroxy-4-propylphenoxy)phenyl]acrylic acid methyl ester]
IC50 ([11]; IC50): > 6250 nM
MIC (ΔANR B. anthracis [1]; Bacillus anthracis): 2 µg/mL (≈ 6.4 µM)

CCCc1ccc(Oc2cccc(CCC(=O)OC)c2)c(O)c1 [Compound 49, 3-[3-(2-Hydroxy-4-propylphenoxy)phenyl]propionic acid methyl ester]
IC50 ([11]; IC50): 7500 ± 1900 nM
MIC (ΔANR B. anthracis [1]; Bacillus anthracis): 7.9 µg/mL (≈ 25.1 µM)

CCCc1ccc(Oc2cccc(CCC(=O)O)c2)c(O)c1 [Compound 51, 3-[3-(2-Hydroxy-4-propylphenoxy)phenyl]propionic acid]
inhibition at 1 µM [11]: 17.6%
MIC (ΔANR B. anthracis [1]; Bacillus anthracis): 60.1 µg/mL (≈ 200 µM)

Oc1cc(Cl)ccc1Oc1ccc(Cl)cc1Cl [Triclosan]
MIC (ΔANR B. anthracis [1]; Bacillus anthracis): 3.1 µg/mL (≈ 10.7 µM)
MIC (ΔANR B. anthracis [14]): 3.1 µg/mL (≈ 10.7 µM)
IC50 (ENR in S. aurues): 70 nM
IC50 (PfENR): 73 nM
IC50 (ENR in E. coli): 7250 nM

From publication PMC2693028 (ChemMedChem, 2008)
